These results are taken from the Kinase Knowledgebase extract (Sharma et al. 2016).

One assay deals with EGFR (UniProt P00533). The note with it: for inhibition: concentration not given here.
Assay [1] has as its target EGFR (human) (UniProt P00533). To be noted: ht-29.
Assay [2] has as its target EGFR (human) (UniProt P00533). To be noted: a431.
Assay [3] concerns the target EGFR (human) (UniProt P00533). To be noted: a549.
Assay [4] addresses EGFR (human) (UniProt P00533). The note with it: mda468.
Assay [5] deals with EGFR (human) (UniProt P00533). The note with it: mdv-7.
Assay [6] addresses EGFR (human) (UniProt P00533). To be noted: mda231.
The target of assay [7] is EGFR (murine) (UniProt P00533). The note with it: fibroblast.
Assay [8] concerns the target EGFR (murine) (UniProt P00533). The note with it: fibroblast. This is another data set of the same source.

The term IC50 denotes the concentration that gives 50% inhibition. As a reminder, the inhibition is the drop in the measured response relative to a control, in per cent. Low values mean a weak effect, high ones a strong effect.

Chain of EGFR (human) (P00533 whole entry, looked up): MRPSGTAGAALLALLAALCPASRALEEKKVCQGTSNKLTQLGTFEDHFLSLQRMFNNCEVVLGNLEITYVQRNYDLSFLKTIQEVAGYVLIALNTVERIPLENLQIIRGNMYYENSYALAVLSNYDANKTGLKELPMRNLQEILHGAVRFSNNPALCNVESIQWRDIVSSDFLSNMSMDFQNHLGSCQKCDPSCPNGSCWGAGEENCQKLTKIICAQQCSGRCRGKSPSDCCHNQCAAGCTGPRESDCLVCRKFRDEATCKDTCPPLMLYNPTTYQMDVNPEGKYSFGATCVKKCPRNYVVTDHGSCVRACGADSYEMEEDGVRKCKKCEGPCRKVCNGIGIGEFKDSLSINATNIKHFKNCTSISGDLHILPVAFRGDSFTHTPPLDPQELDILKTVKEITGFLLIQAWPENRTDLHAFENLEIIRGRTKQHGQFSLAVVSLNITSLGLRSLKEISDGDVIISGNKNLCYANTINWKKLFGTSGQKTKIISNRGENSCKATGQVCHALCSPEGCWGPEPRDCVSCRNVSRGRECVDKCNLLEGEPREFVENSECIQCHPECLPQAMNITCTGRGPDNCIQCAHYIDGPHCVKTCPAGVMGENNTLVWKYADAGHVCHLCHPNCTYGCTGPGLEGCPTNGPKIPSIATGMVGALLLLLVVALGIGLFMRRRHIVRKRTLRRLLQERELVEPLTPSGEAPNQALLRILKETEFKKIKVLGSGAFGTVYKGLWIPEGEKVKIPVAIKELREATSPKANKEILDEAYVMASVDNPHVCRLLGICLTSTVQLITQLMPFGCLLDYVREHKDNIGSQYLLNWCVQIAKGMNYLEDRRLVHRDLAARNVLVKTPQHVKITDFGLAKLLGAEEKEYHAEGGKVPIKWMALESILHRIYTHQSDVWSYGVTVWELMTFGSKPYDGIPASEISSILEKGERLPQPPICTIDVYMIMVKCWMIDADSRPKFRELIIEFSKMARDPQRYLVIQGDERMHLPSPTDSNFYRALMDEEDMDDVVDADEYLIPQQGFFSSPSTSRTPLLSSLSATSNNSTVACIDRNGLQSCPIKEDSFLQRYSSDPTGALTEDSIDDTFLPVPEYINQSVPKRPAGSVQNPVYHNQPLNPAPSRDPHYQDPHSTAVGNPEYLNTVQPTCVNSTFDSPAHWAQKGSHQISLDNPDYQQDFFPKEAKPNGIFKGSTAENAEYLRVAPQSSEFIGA
Chain of EGFR (P00533 whole entry, looked up): as above
Chain of EGFR (murine) (P00533 whole entry, looked up): as above

For `O=C(O)Cc1c(S)[nH]c2ccccc12`, the IC50 against EGFR is 14.9 µM. That is a double-digit micromolar value.

Consider `CCOC(=O)CCc1c(S)n(C)c2ccccc12`, for which the inhibition against EGFR was 3%.

Compound `Cn1c(S)c(CCCC(=O)O)c2ccccc21` registered an IC50 on EGFR of 23 µM.

At EGFR, `O=C(O)CCCc1c(S)[nH]c2ccccc12` registered an IC50 of 6.8 µM. This IC50 lies about 3.4-fold lower than the previous one.

On to `Cn1c(S)c(C(=O)Nc2ccccc2)c2cc(Cl)ccc21`, for which the IC50 against EGFR was found to be 9 µM.

At EGFR, `CCOC(=O)Cc1c(S)n(C)c2ccccc12` had an inhibition of 4%.

`NC(=O)CCc1c(S)[nH]c2ccccc12` displayed an IC50 against EGFR of 22 µM. That is a double-digit micromolar value.

In turn, `CCOC(=O)CCc1c(S)[nH]c2ccccc12` gave an inhibition against EGFR of 10%.

For `O=C(Cc1c(S)[nH]c2ccccc12)NCc1ccccc1`, at EGFR, the IC50 was found to be 25 µM. In other words, the double-digit micromolar range.

Take `Cn1c(S)c(C(=O)c2ccc(C(=O)O)cc2)c2ccccc21`: the IC50 against EGFR is 8.7 µM. Compared with the last compound, the IC50 is about 2.9-fold lower.

Turning to `Cn1c(S)c(C(=O)Nc2ccccc2)c2ccccc21`, the IC50 turned out to be 55 µM on EGFR (human) [1]; 62 µM against EGFR (human) [2]; 30 µM at EGFR (human) [3]; 43 µM on EGFR (human) [4]; 39 µM on EGFR (human) [5]; 15 µM at EGFR (human) [6]. Also, the figures for the IC50 in the assay with EGFR (murine) [7], against EGFR and in the assay with EGFR (murine) [8] were 2 µM, 1 µM and 64 µM, respectively.

On EGFR, `COC(=O)CCCc1c(S)n(C)c2ccccc12` returned an inhibition of 2%.

With `O=C(CCc1c(S)[nH]c2ccccc12)NCc1ccccc1`, at EGFR, the inhibition was 43%.

The compound `COC(=O)Cc1c(S)[nH]c2ccccc12` came in with an inhibition at EGFR of 43%.

For the compound `O=C(O)CCc1c(S)[nH]c2ccccc12`, the IC50 against EGFR was determined as 1.3 µM.

On EGFR, `Cn1c(S)c(CCC(=O)O)c2ccccc21` registered an IC50 of 8.5 µM.
